# Results published in US20110268818A1, “NGAL-BINDING SIDEROPHORES AND USE THEREOF TO TREAT IRON DEFICIENCY AND IRON OVERLOAD” (priority 2008, published 2011).
# Legend:
# NGAL [1] = molecular target: T1, NGAL (Homo sapiens, UniProt P80188); assay: NGAL:siderophore:iron binding assay (retention on 10 kDa filter); conditions: for NGAL: Chelator: Fe % Retention: apoNGAL 10 μM, 55Fe, compound 10 μM, pH 7.4, washed on 10 kDa filter; for NGAL-siderophore-Fe binding activity (in words): iron retention by NGAL on filter
# T1 construct: made in house; host or cells: E. coli BL-21
# Description: NGAL:Siderophore:Iron Binding Assays. […] After 60 minutes, the mixture was washed 3 times (YM-10) or alternatively gel filtered (PD-10, GE Biosciences). Ent loaded NGAL served as a positive control. Ferric citrate (1 mM) or Ent:iron (500 μM) served as competitors of ^55Fe binding.
# After 60 minutes at room temperature, the mixture was then washed 3 times on a 10-kDa membrane (Amicon YM-10; Millipore Corp.). Ngal loaded with iron-free enterochelin (rather than apo-Ngal) served as a positive control for iron capture. Ferric citrate (1 mM) or iron-loaded enterochelin (siderophore:Fe, […]) was used as a competitor of 55Fe binding.
# [2] = Catechol sulfate stability followed by silica gel TLC; assay type: physicochemical
# Excerpt: FIG. 29 is a reproduction of Silical gel TLC developed by Dichlorlmethane: MeOH:H2O=5:1:0.1, and colored by 12.
# Mouse stromal cells = assay: Capture of NGAL:siderophore:55Fe by stromal cells; assay type: cell-based; conditions: bafilomycin inhibits vacuolar H+ ATPase
# Description: Capture of NGAL:Siderophore:Iron. Mouse stromal cells (10^5) were grown in MEM, 10% FCS for 24 hrs and FCS subsequently removed. […] Cells were washed 3 times and extracted with 0.2% SDS.
# [3] = Siderophore:iron binding assay (paper chromatography); conditions: for Fe: Chromatography: 55Fe mobilised by compound on paper chromatogram developed in water, Yes/No
# Excerpt: Siderophore:Iron Binding Assay. To test whether candidates bound iron directly, candidates (1 nmole) were mixed with ^55Fe (1 pmole), and then separated bound from free ^55Fe using paper chromatography developed in water.
# Paper chromatography: The Fe-Siderophore Binding Assay: The concept underlying the Ngal-siderophore-Fe binding assay is that the urinary molecule provides an iron binding siderophore, and that the Ngal protein provides the carrier which retains the siderophore:Fe on the 10 KDa filter. […] To directly test this idea, we will mix 55Fe with HMDB compounds and then separate bound from free 55Fe by using paper chromatography. […] The assay also provides an independent means to follow the purification of the urinary siderophore. Using this assay, we can measure the specific activity of the fractions to identify the peak activity, as well as to compare the urinary fraction with enterochelin to establish relative units of activity.
# NGAL [4] = molecular target: T1, NGAL; assay: Release of ligands and iron from NGAL complexes by acidification; assay type: physicochemical; conditions: fluorescence and 55Fe release
# Excerpt: FIGS. 6A-6C. Release of ligands from NGAL by acidification. […] Fluorescence was quenched by ligand binding. Upon acidification, the ligands were released and fluorescence returned to baseline. Subsequent basification, where relevant, caused rebinding. Note that NGAL:pyrogallol and 2,3-dihydroxybenzoic acid complexes required much lower pH for dissociation. (B) Release of ^55Fe from different NGAL:catecholate complexes by low pH washes on a 10 KDa microcon. For this comparison, the retention of iron at pH7.0 was defined as 100%. […] Data were presented as mean±Std.
# To transport iron from plasma to cells there has to be a mechanism for releasing iron from the complex. Intracellular delivery of iron by transferring is known to require passage through acidified endosomes where iron is released. […] While the complex was stable at neutral pH, acidification below pH 7.0 progressively reversed ligand-dependent fluorescence quenching of NGAL and released iron (FIG. 6A, B).
# Fluorescence quenching binding assay. […] The pH was adjusted until the fluorescence signal stopped changing, while fluorescence values were corrected for dilution. Data were analyzed by a nonlinear regression analysis using a one-site binding model (Kuzmic, P. (1996). Program DYNAFIT for the analysis of enzyme kinetic data: application to HIV proteinase. Anal. Biochem. 237, 260-273). […]
# NGAL [5] = molecular target: T1, NGAL; assay: Fluorescence quenching binding assay
# Description: Fluorescence quenching binding assay. […] The pH was adjusted until the fluorescence signal stopped changing, while fluorescence values were corrected for dilution. […] Control experiments were performed to ensure the stability of the protein at experimental conditions, including the dilution and the addition of DMSO and ubiquitin.
# T1 sequence (P80188 21-198): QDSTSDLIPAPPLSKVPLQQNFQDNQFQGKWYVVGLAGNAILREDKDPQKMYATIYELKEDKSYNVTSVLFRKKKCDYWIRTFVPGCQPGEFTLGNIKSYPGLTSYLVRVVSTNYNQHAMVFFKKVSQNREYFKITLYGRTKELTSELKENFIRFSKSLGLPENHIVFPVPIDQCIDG
Structure (SMILES),NGAL: Chelator: Fe % Retention (NGAL [1]),Fe: Chromatography [3],other results
O=S(=O)([O-])Oc1ccccc1O.[Na+],4%,–,stability in methanol at pH≦6 ([2]; incubated for 1 hour): decompose; stability in urine ([2]; incubated for 48 hours): stable
CO/C1=C\C(C)=C\[C@@H](C)[C@@H](O)[C@@H](C)C/C(C)=C/C=C/[C@H](OC)[C@@H]([C@@H](C)[C@@H](O)[C@H](C)[C@@]2(O)C[C@@H](O)[C@H](C)[C@@H](C(C)C)O2)OC1=O [bafilomycin],–,–,iron donation from NGAL:catechol:iron complex to cells (Mouse stromal cells): blocked
Cc1cccc(O)c1O [3-methylcatechol],56%,Yes,NGAL-siderophore-Fe binding activity (in words) (NGAL [1]): highest activities; pH at which the NGAL:ligand:iron complex dissociates (NGAL [4]): 5.5 pH
N[C@@H](Cc1ccc(O)c(O)c1)C(=O)O [Dihydroxyphenyl alanine (L-DOPA)],10%,Yes,iron chelating activity by paper chromatography (in words) [3]: active
O=C([O-])CC(O)(CC(=O)[O-])C(=O)[O-].[Na+].[Na+].[Na+] [Citric acid sodium],6%,Yes,iron chelating activity by paper chromatography (in words) [3]: active
O=C1CC(C(=O)O)NC(=O)N1 (racemic) [DL- Dihdroorotic acid],7%,No,–
"O=C(O)c1cccnc1C(=O)O [2,3-Pyridine-dicarboxylic acid]",6%,No,–
O=C(O)CNC(=O)c1ccco1 [2-Furoylglycine],6%,No,–
Cc1ncc(CO)c(C=O)c1O [Pyridoxal],1%,No,–
Cc1ccc(O)c(O)c1 [4-methylcatechol],29%,Yes,NGAL-siderophore-Fe binding activity (in words) (NGAL [1]): highest activities; affinity for NGAL (in words) (NGAL [5]): low affinity
O=c1oc2c(O)c(O)cc3c(=O)oc4c(O)c(O)cc1c4c23 [Ellagic acid],24%,Yes,NGAL-siderophore-Fe binding activity (in words) (NGAL [1]): active; iron chelating activity by paper chromatography (in words) [3]: active
C=CC1=C(C)/C(=C/c2[nH]c(Cc3[nH]c(/C=C4\NC(=O)C(C)=C4C=C)c(C)c3CCC(=O)O)c(CCC(=O)O)c2C)NC1=O [Bilirubin],3%,No,–
"Oc1cccc(O)c1O [Benzene 1,2,3 Trial (Pyrogallol)]",73%,Yes,NGAL-siderophore-Fe binding activity (in words) (NGAL [1]): highest activities
O=S1(=O)Oc2ccccc2O1 [Catechol cyclic sulfonate],6%,No,–
O=C(O)c1cccnc1 [Nicotinic acid],3%,No,–
